Measurements taken from US20030212084A1, “Naphthrydine compounds and their azaisosteric analogues as antibacterials” (priority 1998, published 2003).
Values after ≈ are worked out from the molar mass of the structure shown.

Columns and labels:
Type in all cases: cell-based
some of these organisms = experiment: MIC against various organisms (unspecified subset); settings: against some of these organisms (those of the table)
Procedure: (§1) The MIC (μg/ml) of compounds 1 and 2 against various organisms was determined.

M. catarrhalis Ravasio = experiment: MIC against M. catarrhalis Ravasio; settings: Moraxella catarrhalis
Procedure: as §1

S. aureus Oxford = experiment: MIC against S. aureus Oxford; settings: Staphylococcus aureus
Procedure: as §1

S. aureus Carter 37 = experiment: MIC against S. aureus Carter 37; settings: Staphylococcus aureus, CARTER37
Procedure: as §1

E. faecalis I = experiment: MIC against E. faecalis I; settings: Enterococcus faecalis
Procedure: as §1

S. aureus WCUH29 = experiment: MIC against S. aureus WCUH29; settings: Staphylococcus aureus
Procedure: as §1

S. pneumoniae R6 = experiment: MIC against S. pneumoniae R6; settings: Streptococcus pneumoniae
Procedure: as §1

| SMILES | MIC (some of these organisms) | MIC (M. catarrhalis Ravasio) | MIC (S. aureus Oxford) | MIC (S. aureus Carter 37) | MIC (E. faecalis I) | MIC (S. aureus WCUH29) | MIC (S. pneumoniae R6) |
| --- | --- | --- | --- | --- | --- | --- | --- |
| CCCCCCCN1CC[C@@H](CC(=O)Nc2ccnc3ccc(OC)nc23)[C@@H](CC(N)=O)C1.O=C(O)C(=O)O [Example 6, [3R,4S]-1-Heptyl-4-N-(6-methoxy-1,5-naphthyridin-4-yl)-3,4-piperidinediacetamide Oxalate] | ≤ 1 µg/mL |  |  |  |  |  |  |
| C=C[C@H]1CN(CCCCCCC)CC[C@H]1CCN(C)c1ncnc2ccc(OC)cc12 [Example 1, [3R, 4S]-1-Heptyl-4-[N-methyl-N-(6-methoxy-quinazolin-4-yl)-2-aminoethyl]-3-ethenylpiperidine] |  | 0.5 µg/mL (≈ 1.18 µM) | 0.5 µg/mL (≈ 1.18 µM) | 0.5 µg/mL (≈ 1.18 µM) | 4 µg/mL (≈ 9.42 µM) | 0.5 µg/mL (≈ 1.18 µM) | 0.5 µg/mL (≈ 1.18 µM) |
| CCCCCCCN1CCC(C(=O)Nc2ccnc3ccc(OC)nc23)CC1 [Example 3, 1-Heptyl-4-(6-methoxy-1,5-naphthyridin-4-yl)aminocarbonyl Piperidine] | ≤ 1 µg/mL |  |  |  |  |  |  |
| C=C[C@H]1CN(CCCCCCC)CC[C@H]1CCOc1ncnc2ccc(OC)cc12 [Example 2, [3R, 4S]-1-Heptyl-4-[2-(6-methoxyquinazolin4-oxy)ethyl]-3-ethenylpiperidine] |  | 4 µg/mL (≈ 9.72 µM) | 4 µg/mL (≈ 9.72 µM) | 4 µg/mL (≈ 9.72 µM) | 8 µg/mL (≈ 19.4 µM) | 4 µg/mL (≈ 9.72 µM) | 8 µg/mL (≈ 19.4 µM) |
| C=C[C@H]1CN(CCCCCCC)CC[C@H]1CC(O)Cc1ccnc2ccc(OC)nc12 (mixture of isomers) [Example 5, [3R,4S]-1-Heptyl-3-ethenyl-4-[2-(R,S)-hydroxy-3-(6-methoxy-1,5-naphthyridin-4-yl)propyl]piperidine] | ≤ 1 µg/mL |  |  |  |  |  |  |
